Source: publication PMC4770715, “LIM kinase inhibitors disrupt mitotic microtubule organization and impair tumor cell proliferation” (Oncotarget, 2015)

How the values were obtained:
Experiment in all cases: biochemical
Parameters in all cases: KINOMEscan active-site competition binding, percent of control (100 = no competition)
Details in all cases: competition binding, percent control
PIK3C2B = PIK3C2B (Homo sapiens, UniProt O00750)
RIOK2 = RIOK2 (Homo sapiens, UniProt Q9BVS4)
DAPK2 = DAPK2 (Homo sapiens, UniProt Q9UIK4)
STK36 = STK36 (Homo sapiens, UniProt Q9NRP7)
GSK3A = GSK3A (Homo sapiens, UniProt P49840)
IRAK4 = IRAK4 (Homo sapiens, UniProt Q9NWZ3)
CAMK1D = CAMK1D (Homo sapiens, UniProt Q8IU85)
NEK9 = NEK9 (Homo sapiens, UniProt Q8TD19)
TNK1 = TNK1 (Homo sapiens, UniProt Q13470)
Sequence of TNK1 (Q13470 whole entry): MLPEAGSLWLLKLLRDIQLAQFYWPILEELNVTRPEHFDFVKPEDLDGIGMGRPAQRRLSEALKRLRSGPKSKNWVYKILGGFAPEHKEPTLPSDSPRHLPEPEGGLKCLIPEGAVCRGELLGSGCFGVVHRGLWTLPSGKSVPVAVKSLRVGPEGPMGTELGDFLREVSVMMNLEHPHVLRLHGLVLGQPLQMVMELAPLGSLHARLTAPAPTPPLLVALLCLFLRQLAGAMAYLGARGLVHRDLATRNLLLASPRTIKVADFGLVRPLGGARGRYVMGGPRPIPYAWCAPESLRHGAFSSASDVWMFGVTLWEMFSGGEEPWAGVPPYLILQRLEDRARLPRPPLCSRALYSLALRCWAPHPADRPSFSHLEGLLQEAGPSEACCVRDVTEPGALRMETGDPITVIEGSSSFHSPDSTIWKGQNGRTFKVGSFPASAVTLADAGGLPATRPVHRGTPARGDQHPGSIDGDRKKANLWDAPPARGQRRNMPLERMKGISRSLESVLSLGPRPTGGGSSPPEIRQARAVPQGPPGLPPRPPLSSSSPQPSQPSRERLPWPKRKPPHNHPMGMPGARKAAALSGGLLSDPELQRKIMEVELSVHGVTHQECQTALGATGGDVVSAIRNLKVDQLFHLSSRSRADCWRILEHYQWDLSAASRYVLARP

FLT3(K663Q) = FLT3(K663Q) (Homo sapiens, UniProt P36888, K663Q)
DCAMKL2 = target: T1, DCAMKL2 (Homo sapiens, UniProt Q8N568)
T1 construct: gene DCLK2

SRPK2 = SRPK2 (Homo sapiens, UniProt P78362)
TIE1 = TIE1 (Homo sapiens, UniProt P35590)
PFTAIRE2 = target: T2, PFTAIRE2 (Homo sapiens, UniProt Q96Q40)
T2 construct: gene CDK15

PRKCI = PRKCI (Homo sapiens, UniProt P41743)
Sequence of PRKCI (P41743 whole entry): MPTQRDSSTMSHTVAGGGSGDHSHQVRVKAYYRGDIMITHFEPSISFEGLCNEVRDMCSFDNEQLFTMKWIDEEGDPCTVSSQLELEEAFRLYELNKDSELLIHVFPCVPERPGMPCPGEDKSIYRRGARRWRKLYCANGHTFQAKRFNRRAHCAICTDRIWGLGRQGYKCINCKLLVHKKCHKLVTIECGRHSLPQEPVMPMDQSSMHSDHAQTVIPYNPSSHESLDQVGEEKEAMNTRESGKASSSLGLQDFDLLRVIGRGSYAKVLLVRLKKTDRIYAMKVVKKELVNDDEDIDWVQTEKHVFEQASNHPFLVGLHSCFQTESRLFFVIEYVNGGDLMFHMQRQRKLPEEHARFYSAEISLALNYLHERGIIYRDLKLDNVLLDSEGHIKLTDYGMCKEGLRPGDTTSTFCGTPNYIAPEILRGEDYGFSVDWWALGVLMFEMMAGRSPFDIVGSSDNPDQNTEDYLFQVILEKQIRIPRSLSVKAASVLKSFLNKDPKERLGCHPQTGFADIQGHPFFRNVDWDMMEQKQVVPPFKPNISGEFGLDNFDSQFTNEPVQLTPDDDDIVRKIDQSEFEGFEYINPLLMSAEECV

ULK2 = ULK2 (Homo sapiens, UniProt Q8IYT8)
ICK = target: T3, ICK (Homo sapiens, UniProt Q9UPZ9)
T3 construct: gene CILK1
T3 sequence (Q9UPZ9 whole entry): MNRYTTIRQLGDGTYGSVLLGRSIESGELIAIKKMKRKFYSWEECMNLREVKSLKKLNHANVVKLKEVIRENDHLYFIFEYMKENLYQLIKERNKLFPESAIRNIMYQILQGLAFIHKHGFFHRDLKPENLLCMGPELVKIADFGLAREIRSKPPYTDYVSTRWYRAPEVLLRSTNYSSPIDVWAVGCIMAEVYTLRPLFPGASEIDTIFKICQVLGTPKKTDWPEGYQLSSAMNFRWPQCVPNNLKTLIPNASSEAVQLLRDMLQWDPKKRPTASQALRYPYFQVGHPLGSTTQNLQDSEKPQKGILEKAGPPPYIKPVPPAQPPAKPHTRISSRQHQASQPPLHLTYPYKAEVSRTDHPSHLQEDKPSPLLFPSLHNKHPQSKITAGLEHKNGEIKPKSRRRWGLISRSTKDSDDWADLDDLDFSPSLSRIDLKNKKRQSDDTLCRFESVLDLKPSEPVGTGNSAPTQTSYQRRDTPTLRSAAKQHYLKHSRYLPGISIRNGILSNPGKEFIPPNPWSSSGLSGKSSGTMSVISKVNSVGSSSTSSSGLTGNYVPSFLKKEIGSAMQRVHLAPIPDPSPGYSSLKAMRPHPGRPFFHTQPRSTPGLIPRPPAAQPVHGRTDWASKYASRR

MAP3K3 = MAP3K3 (Homo sapiens, UniProt Q99759)
ZAP70 = ZAP70 (Homo sapiens, UniProt P43403)
Sequence of ZAP70 (P43403 whole entry): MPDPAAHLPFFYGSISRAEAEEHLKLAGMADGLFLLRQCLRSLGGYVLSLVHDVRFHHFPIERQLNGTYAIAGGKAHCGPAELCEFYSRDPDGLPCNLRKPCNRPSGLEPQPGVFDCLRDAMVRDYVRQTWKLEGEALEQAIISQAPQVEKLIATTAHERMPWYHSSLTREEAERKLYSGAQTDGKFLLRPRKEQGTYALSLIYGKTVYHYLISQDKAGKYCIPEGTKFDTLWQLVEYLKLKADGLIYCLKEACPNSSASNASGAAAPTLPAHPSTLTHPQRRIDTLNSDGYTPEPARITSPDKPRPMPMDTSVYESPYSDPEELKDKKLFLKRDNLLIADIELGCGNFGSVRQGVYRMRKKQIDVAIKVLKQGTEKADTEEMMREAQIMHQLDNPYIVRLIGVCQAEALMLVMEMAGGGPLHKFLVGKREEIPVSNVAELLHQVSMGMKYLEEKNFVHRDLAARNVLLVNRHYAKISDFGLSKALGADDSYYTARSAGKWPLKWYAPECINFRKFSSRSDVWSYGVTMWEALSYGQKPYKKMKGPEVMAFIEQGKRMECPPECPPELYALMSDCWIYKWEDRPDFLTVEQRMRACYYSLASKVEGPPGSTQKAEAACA

ROS1 = ROS1 (Homo sapiens, UniProt P08922)
MET = MET (Homo sapiens, UniProt P08581)
Sequence of MET (P08581 whole entry): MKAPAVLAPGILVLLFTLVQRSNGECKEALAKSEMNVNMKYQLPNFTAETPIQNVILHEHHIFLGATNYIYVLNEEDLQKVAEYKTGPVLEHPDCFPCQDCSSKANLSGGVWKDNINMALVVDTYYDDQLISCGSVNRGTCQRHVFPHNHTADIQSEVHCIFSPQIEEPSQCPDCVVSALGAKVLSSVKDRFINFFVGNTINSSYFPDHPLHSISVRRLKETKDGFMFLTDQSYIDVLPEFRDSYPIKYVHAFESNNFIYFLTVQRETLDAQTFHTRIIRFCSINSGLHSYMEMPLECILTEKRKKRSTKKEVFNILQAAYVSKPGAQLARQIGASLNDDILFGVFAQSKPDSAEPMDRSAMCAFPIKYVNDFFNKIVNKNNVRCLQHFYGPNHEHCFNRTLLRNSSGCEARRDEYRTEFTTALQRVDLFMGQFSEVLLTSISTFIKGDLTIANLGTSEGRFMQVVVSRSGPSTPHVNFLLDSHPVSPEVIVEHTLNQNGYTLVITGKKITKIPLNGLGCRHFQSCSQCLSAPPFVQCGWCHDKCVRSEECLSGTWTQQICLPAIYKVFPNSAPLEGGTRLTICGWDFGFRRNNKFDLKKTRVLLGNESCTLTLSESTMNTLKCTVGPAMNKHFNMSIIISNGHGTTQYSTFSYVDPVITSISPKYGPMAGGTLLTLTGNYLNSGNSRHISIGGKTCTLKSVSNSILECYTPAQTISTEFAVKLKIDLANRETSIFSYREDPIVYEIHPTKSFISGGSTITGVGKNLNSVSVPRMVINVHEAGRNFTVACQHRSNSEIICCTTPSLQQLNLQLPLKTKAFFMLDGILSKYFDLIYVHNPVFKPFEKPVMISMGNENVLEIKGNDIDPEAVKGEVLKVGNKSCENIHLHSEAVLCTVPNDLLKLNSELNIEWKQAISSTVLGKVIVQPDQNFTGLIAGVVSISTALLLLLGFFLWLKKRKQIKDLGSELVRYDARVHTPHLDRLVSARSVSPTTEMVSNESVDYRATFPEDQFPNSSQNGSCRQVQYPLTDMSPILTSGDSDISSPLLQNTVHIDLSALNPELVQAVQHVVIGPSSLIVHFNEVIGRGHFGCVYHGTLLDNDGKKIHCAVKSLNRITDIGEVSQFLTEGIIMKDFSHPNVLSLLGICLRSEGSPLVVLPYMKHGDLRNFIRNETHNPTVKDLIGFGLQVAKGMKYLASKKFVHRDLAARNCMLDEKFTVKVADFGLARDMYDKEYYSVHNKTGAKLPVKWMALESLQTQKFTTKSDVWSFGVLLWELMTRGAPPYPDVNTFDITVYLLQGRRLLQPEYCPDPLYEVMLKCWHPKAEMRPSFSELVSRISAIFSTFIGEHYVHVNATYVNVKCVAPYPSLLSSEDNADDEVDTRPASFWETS

MET(M1250T) = MET(M1250T) (Homo sapiens, UniProt P08581, M1250T)
MYLK4 = MYLK4 (Homo sapiens, UniProt Q86YV6)
Sequence of MYLK4 (Q86YV6 whole entry): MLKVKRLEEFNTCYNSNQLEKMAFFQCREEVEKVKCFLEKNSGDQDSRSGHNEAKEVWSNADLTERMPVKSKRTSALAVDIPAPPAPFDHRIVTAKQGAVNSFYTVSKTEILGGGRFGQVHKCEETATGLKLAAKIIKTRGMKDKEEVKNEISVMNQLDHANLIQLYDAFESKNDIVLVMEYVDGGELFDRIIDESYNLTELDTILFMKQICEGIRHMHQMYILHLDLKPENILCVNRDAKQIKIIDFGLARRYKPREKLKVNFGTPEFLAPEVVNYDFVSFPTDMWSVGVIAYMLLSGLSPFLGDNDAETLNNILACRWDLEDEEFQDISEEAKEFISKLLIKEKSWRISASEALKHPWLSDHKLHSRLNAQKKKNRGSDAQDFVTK

Sequence of RIOK2 (Q9BVS4 whole entry): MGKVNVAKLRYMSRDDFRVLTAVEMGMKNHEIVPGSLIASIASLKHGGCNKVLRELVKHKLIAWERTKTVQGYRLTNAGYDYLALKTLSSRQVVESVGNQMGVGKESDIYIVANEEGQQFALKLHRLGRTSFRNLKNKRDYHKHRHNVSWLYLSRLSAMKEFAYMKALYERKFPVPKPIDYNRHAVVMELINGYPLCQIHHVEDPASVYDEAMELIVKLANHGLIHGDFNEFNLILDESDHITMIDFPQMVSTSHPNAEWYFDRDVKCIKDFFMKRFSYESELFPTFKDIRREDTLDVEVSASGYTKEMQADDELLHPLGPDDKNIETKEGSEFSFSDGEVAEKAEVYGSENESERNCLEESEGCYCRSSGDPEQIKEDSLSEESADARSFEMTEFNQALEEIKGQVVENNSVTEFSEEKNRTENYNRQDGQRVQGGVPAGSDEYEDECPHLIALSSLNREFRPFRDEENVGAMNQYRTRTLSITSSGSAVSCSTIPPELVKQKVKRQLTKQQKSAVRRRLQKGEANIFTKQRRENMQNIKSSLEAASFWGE

SMILES	remaining binding at 10 µM (PIK3C2B) [%]	remaining binding at 10 µM (RIOK2) [%]	remaining binding at 10 µM (DAPK2) [%]	remaining binding at 10 µM (STK36) [%]	remaining binding at 10 µM (GSK3A) [%]	remaining binding at 10 µM (IRAK4) [%]	remaining binding at 10 µM (CAMK1D) [%]	remaining binding at 10 µM (NEK9) [%]	remaining binding at 10 µM (TNK1) [%]	remaining binding at 10 µM (FLT3(K663Q)) [%]	remaining binding at 10 µM (DCAMKL2) [%]	remaining binding at 10 µM (SRPK2) [%]	remaining binding at 10 µM (TIE1) [%]	remaining binding at 10 µM (PFTAIRE2) [%]	remaining binding at 10 µM (PRKCI) [%]	remaining binding at 10 µM (ULK2) [%]	remaining binding at 10 µM (ICK) [%]	remaining binding at 10 µM (MAP3K3) [%]	remaining binding at 10 µM (ZAP70) [%]	remaining binding at 10 µM (ROS1) [%]	other results
COc1ccc(-c2cnccc2-c2cnc(NC(=O)C(C)C)s2)c(C(F)(F)F)c1 [CRT0105446, N-{5-[3-(4-Methoxy-2-trifluoromethyl-phenyl)-pyridin-4-yl]-hiazol-2-yl}-isobutyramide]	100	16	87	57	56	100	79	92	67	34	39	93	87	18	81	100	18	100	86	100	remaining binding at 10 µM (MET): 80%; remaining binding at 10 µM (MET(M1250T)): 93%; remaining binding at 10 µM (MYLK4): 71%
Cc1ccc(-c2cnccc2-c2cnc(Nc3ccc(O)cc3)s2)c(Cl)c1 [CRT0105950, 4-{5-[3-(2-Chloro-4-methyl-phenyl)-pyridin-4-yl]-thiazol-2-ylamino}-phenol]	100	2	53	17	32	80	63	96	3.7	0.5	77	83	16	18	79	20	19	20	99	100	remaining binding at 10 µM (MET): 16%; remaining binding at 10 µM (MET(M1250T)): 19%; remaining binding at 10 µM (MYLK4): 9.4%
